From US20090181931A1, “ANTIVIRAL ACTIVITY OF CIDOFOVIR AGAINST ONCOLYTIC VIRUSES” (priority 2008, published 2009)
Where “and” joins values, the source holds several entries; their conditions need not be identical. Identical values can stand only once.

Assays:
[1] = XTT cell viability assay, CDV alone, H1299 cells; assay type: cell-based; settings: human; H1299 cells, XTT; read-out: CC50, CDV concentration that reduce the relative cell viability to 50%
Experimental: (§1) Cells frozen in liquid nitrogen were thawed in water bath at 37° C., seeded at T25 flask, and cultured at 70-90% sub-confluent monolayer. Cells were detached with trypsin, and prepared suspension at a concentration of 1.0×10^4 cells/ml.
(§2) Cells were seeded in 96 well-plate (100 μL/well, 1000 cells/well), then cultured with 5% CO2 at 37° C.
(§3) Viruses were diluted at MOI of 1 (OBP-301, OBP-202) in H1299 and 5 in A549 (PFU/cell). Medium in each well was removed, 150 μL of diluted virus solution was added to each well of the plate. 2 hours later, medium was aspirated and replaced with fresh medium containing 2% FCS and serially diluted CDV. Cells were incubated with 5% CO2 at 37° C. for 7 days after infection.
(§4) Viruses were diluted at MOI of 0.1 (OBP-401) or 10 (ONYX-015) in H1299. Medium in each well was removed, 50 μL of diluted virus solution was added to each well of the plate. 2 hours later, medium was aspirated and replaced with fresh medium containing 2% FCS and serially diluted CDV. Cells were incubated with 5% CO2 at 37° C. for 7 days after infection.
(§5) 100 μL of PBS, 50 μL of XTT labeling reagent, and 1 μL of ion coupling reagent per well of plate were mixed.
(§6) Medium in each well of plate was removed, and 150 μL of mixture prepared above was added to each well. Plate was incubated with 5% CO2 at 37° C. for 4 hours, and then calculated absorbance at 450 nm and 690 nm. Protection was determined by the formula below: […]

H1299 cells = assay: XTT cell viability assay, CDV alone, H1299 cells; assay type: cell-based; settings: for Relative cell viability Ave. / Relative cell viability: H1299, no virus, 7 days; for Relative cell viability: single wells, dihydrate
Experimental: as §1, §2, §3, §4, §5, §6

Telomelysin (OBP-301) = assay: Real-time quantitative PCR, viral E1A copy number, Telomelysin in H1299 cells; assay type: cell-based, adenovirus; settings: for E1A copy number, % (relative to 0 μM) / E1A copy number/ng DNA: Telomelysin MOI 10, H1299, 24 hours
Experimental: Cells were seeded in 6-well plate (2 mL/well, 2×10^5 cells/well), and incubated with 5% CO2 at 37° C.
Viruses were diluted at a MOI of 10. Medium in each well was removed, 500 μL of diluted virus solution was added to each well of the plate. Plates were incubated with 5% CO2 at 37° C. for 2 hours with gently shaking every 15 minutes. Medium was aspirated, washed with PBS twice, and replaced with fresh medium containing 2% FCS and serially diluted CDV. Cells were incubated with 5% CO2 at 37° C. for 24 hours after infection.
Cells were detached with Trypsin-EDTA, and collected by centrifuging. Total DNA was extracted using QIAamp™ DNA Mini Kit according to manufacture's instructions with some modifications: addition of 20 μL of RNaseA in each sample when adding ProK. DNA was eluted by 50˜100 μL of D. W.
Concentration of DNA was determined by measuring O.D.260. Each DNA samples was diluted by D. W. at a concentration of 5 ng/μL.
Master-mix for E1A primer was prepared using LightCycler™ Faststart DNAMaster SYBR Green™ according to Table 1. Standard DNA was prepared by serially 10 times dilution of pCRII-E1A plasmid (1×10^9, 1×10^8, 1×10^7, 1×10^6, 1×10^5, 1×10^4, and 1×10^3 copies/μL). 2 μL of Sample or Standard DNA was and 18 μL of Master mix were added into capillaries (total volume was 20 μL per capillary).
Q-PCR was performed according to the program of Table 2 (LightCycler quicksystem 350S). Results obtained here were analyzed using LightCycler softwere.

ONYX-015 = assay: XTT assay, protection from cytopathic effect of ONYX-015 in H1299 cells; assay type: cell-based, adenovirus; settings: for Protection (%) Ave. / Protection (%): ONYX-015 MOI 10, H1299, 7 days; for Protection (%): single wells, dihydrate
Experimental: as §1, §2, §4, §5
Medium in each well of plate was removed, and 150 μL of mixture prepared above was added to each well. Plate was incubated with 5% CO2 at 37° C. for 4 hours, and then calculated absorbance at 450 nm and 690 nm. Protection was determined by the formula below:
Protection(%)={OD(AdV(+):CDV(+))−OD(AdV(+):CDV(−))}/{OD(AdV(−):CDV(+))−OD(AdV(+):CDV(−))}×100.

Nc1ccn(C[C@@H](CO)OCP(=O)(O)O)c(=O)n1.O.O [CDV, 1-[(S)-3-hydroxy-2-(phosphonomethoxy)propyl]cytosine dihydrate]
CC50 at 7 days [1]: 146 µM | Relative cell viability Ave. (H1299 cells; CDV 0.01 μM, Table 4A): 1.014 | Relative cell viability Ave. (H1299 cells; CDV 0.01 μM, Table 4B): 0.992 | Relative cell viability (H1299 cells; CDV 0.01 μM, Table 4A): 0.978 and 1.068 and 1.002 and 1.009 | Relative cell viability (H1299 cells; CDV 0.01 μM, Table 4B): 0.970 and 1.010 and 0.999 and 0.990 | Relative cell viability Ave. (H1299 cells; CDV 0.06 μM, Table 4A): 0.996 | Relative cell viability Ave. (H1299 cells; CDV 0.06 μM, Table 4B): 0.985 | Relative cell viability (H1299 cells; CDV 0.06 μM, Table 4A): 0.945 and 1.070 and 0.997 and 0.972 | Relative cell viability (H1299 cells; CDV 0.06 μM, Table 4B): 0.950 and 1.019 and 0.990 and 0.981 | Relative cell viability Ave. (H1299 cells; CDV 0.32 μM, Table 3A): 1.074 | Relative cell viability Ave. (H1299 cells; CDV 0.32 μM, Table 4A): 1.020 | Relative cell viability (H1299 cells; CDV 0.32 μM, Table 3A): 0.963 and 1.073 and 1.171 and 1.087 | Relative cell viability (H1299 cells; CDV 0.32 μM, Table 4A): 0.977 and 1.068 and 1.001 and 1.032 | Relative cell viability Ave. (H1299 cells; CDV 1.6 μM, Table 3A): 1.017 | Relative cell viability Ave. (H1299 cells; CDV 1.6 μM, Table 4A): 1.030 | Relative cell viability Ave. (H1299 cells; CDV 1.6 μM, Table 4B): 0.990 | Relative cell viability (H1299 cells; CDV 1.6 μM, Table 3A): 0.970 and 1.043 and 1.110 and 0.945 | Relative cell viability (H1299 cells; CDV 1.6 μM, Table 4A): 0.981 and 1.061 and 1.044 and 1.033 | Relative cell viability (H1299 cells; CDV 1.6 μM, Table 4B): 0.984 and 0.996 and 0.983 and 0.997 | Relative cell viability Ave. (H1299 cells; CDV 8 μM, Table 3A): 1.010 | Relative cell viability Ave. (H1299 cells; CDV 8 μM, Table 4A): 0.989 | Relative cell viability Ave. (H1299 cells; CDV 8 μM, Table 4B): 0.925 | Relative cell viability (H1299 cells; CDV 8 μM, Table 3A): 0.912 and 1.037 and 1.043 and 1.047 | Relative cell viability (H1299 cells; CDV 8 μM, Table 4A): 0.918 and 1.022 and 1.016 and 0.999 | Relative cell viability (H1299 cells; CDV 8 μM, Table 4B): 0.913 and 0.935 and 0.928 and 0.923 | Relative cell viability Ave. (H1299 cells; CDV 40 μM, Table 3A): 0.923 | Relative cell viability Ave. (H1299 cells; CDV 40 μM, Table 4A): 0.695 | Relative cell viability Ave. (H1299 cells; CDV 40 μM, Table 4B): 0.600 | Relative cell viability (H1299 cells; CDV 40 μM, Table 3A): 1.004 and 0.919 and 0.876 and 0.894 | Relative cell viability (H1299 cells; CDV 40 μM, Table 4A): 0.709 and 0.677 and 0.686 and 0.706 | Relative cell viability (H1299 cells; CDV 40 μM, Table 4B): 0.588 and 0.574 and 0.628 and 0.609 | Relative cell viability Ave. (H1299 cells; CDV 200 μM, Table 3A): 0.398 | Relative cell viability Ave. (H1299 cells; CDV 200 μM, Table 4A): 0.199 | Relative cell viability Ave. (H1299 cells; CDV 200 μM, Table 4B): 0.136 | Relative cell viability (H1299 cells; CDV 200 μM, Table 3A): 0.401 and 0.420 and 0.362 and 0.411 | Relative cell viability (H1299 cells; CDV 200 μM, Table 4A): 0.221 and 0.203 and 0.185 and 0.186 | Relative cell viability (H1299 cells; CDV 200 μM, Table 4B): 0.135 and 0.128 and 0.145 and 0.134 | Relative cell viability Ave. (H1299 cells; CDV 1000 μM, Table 4A): 0.037 | Relative cell viability Ave. (H1299 cells; CDV 1000 μM, Table 4B): 0.015 | Relative cell viability (H1299 cells; CDV 1000 μM, Table 4A): 0.033 and 0.043 and 0.036 and 0.037 | Relative cell viability (H1299 cells; CDV 1000 μM, Table 4B): 0.021 and 0.013 and 0.012 and 0.015 | toxicity of CDV itself (H1299 cells; H1299 cells, high concentrations): toxic | E1A copy number, % (relative to 0 μM) (Telomelysin (OBP-301); CDV 0.16 μM): 97.60% | E1A copy number/ng DNA (Telomelysin (OBP-301); CDV 0.16 μM): 1.461E+08 copy number/ng DNA | E1A copy number, % (relative to 0 μM) (Telomelysin (OBP-301); CDV 0.8 μM): 98.93% | E1A copy number/ng DNA (Telomelysin (OBP-301); CDV 0.8 μM): 1.481E+08 copy number/ng DNA | E1A copy number, % (relative to 0 μM) (Telomelysin (OBP-301); CDV 4 μM): 91.32% | E1A copy number/ng DNA (Telomelysin (OBP-301); CDV 4 μM): 1.367E+08 copy number/ng DNA | E1A copy number, % (relative to 0 μM) (Telomelysin (OBP-301); CDV 20 μM): 47.07% | E1A copy number/ng DNA (Telomelysin (OBP-301); CDV 20 μM): 7.046E+07 copy number/ng DNA | E1A copy number, % (relative to 0 μM) (Telomelysin (OBP-301); CDV 100 μM): 9.99% | E1A copy number/ng DNA (Telomelysin (OBP-301); CDV 100 μM): 1.496E+07 copy number/ng DNA | EC50 (Telomelysin (OBP-301); NCI-H1299, H1299 cells, real-time quantitative PCR, read-out: EC50 (E1A), CDV concentration that reduces the relative E1A copy number of Telomelysin to 50%): 19.6 µM | Viral E1A copy number (Telomelysin (OBP-301); Telomelysin, H1299 cells, dose-dependent manner): reduced | Protection (%) Ave. (ONYX-015; CDV 0.01 μM): −1.092% | Protection (%) (ONYX-015; CDV 0.01 μM): −1.284% and −1.233% and −0.822% and −1.027% | Protection (%) Ave. (ONYX-015; CDV 0.06 μM): −0.642% | Protection (%) (ONYX-015; CDV 0.06 μM): −0.616% and −0.205% and 0.051% and −1.798% | Protection (%) Ave. (ONYX-015; CDV 0.32 μM): 1.516% | Protection (%) (ONYX-015; CDV 0.32 μM): 3.237% and 4.675% and −0.205% and −1.644% | Protection (%) Ave. (ONYX-015; CDV 1.6 μM): 2.646% | Protection (%) (ONYX-015; CDV 1.6 μM): 4.315% and 1.849% and −1.079% and 5.497% | Protection (%) Ave. (ONYX-015; CDV 8 μM): 5.703% | Protection (%) Ave. (ONYX-015; CDV 40 μM): 55.420% | Protection (%) (ONYX-015; CDV 40 μM): 50.912% and 58.926% and 55.536% and 56.306% | Protection (%) Ave. (ONYX-015; CDV 200 μM): 11.264% | Protection (%) (ONYX-015; CDV 200 μM): 10.121% and 16.902% and 9.350% and 8.682% | Protection (%) Ave. (ONYX-015; CDV 1000 μM): −0.783% | Protection (%) (ONYX-015; CDV 1000 μM): −2.312% and −2.260% and −2.363% and 3.802% | cytopathic effect induced by ONYX-015 (ONYX-015; H1299 cells, FIG. 2A): apparently inhibited
